Data set [1] has as its target T1, human GLP-1 receptor (Homo sapiens, UniProt P43220).
T1 construct: expressed in transfected cells; host or cells: BHK cells, clone FCW467-12A/KZ10-1 (parent line BHKTS13), further transfected with CRE luciferase
Put plainly: GLP-1 receptor binding (SPA, displacement of 125I-GLP-1). The essentials:
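Tracer [125I]-GLP-1(7-36)NH2 at 0.06 nM final competed on hamster stably transfected cell membranes captured by WGA SPA beads; 120 min, 30 °C, scintillation count.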

A short description of data set [2]: in vivo. Particulars: male, Sprague Dawley, rat, iv.
Data set [3] addresses T1, human GLP-1 receptor. Put plainly: In vitro potency (CRE luciferase; whole cells). It is filed as cell-based. Particulars: BHK cells. In outline:
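Reporter: CRE-luciferase in BHK cells stably expressing human GLP-1R, 5×10^3 cells/well; compounds tested in buffer containing 0% or 1% HSA.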

Data set [4] in a line: in vivo. Particulars: male, Göttingen, minipig, iv.

Like-named read-outs stand apart in the source and are kept apart here.

T1 sequence (P43220 24-463): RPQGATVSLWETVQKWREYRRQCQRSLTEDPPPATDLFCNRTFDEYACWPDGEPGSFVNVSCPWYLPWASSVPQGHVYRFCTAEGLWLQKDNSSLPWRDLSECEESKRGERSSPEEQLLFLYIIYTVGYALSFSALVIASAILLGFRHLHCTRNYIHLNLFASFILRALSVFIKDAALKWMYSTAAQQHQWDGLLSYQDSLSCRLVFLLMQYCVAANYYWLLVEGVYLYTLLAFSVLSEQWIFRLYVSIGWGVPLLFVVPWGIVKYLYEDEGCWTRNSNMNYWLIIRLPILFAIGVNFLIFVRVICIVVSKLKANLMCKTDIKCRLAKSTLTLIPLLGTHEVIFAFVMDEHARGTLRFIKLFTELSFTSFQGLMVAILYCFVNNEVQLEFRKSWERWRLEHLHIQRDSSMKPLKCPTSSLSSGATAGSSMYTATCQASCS

In general, IC50 refers to the concentration at which inhibition is half-maximal. A word on the half-life: it is how long it takes for the measured level to halve. A high value points to slow decline. In general, EC50 refers to the midpoint of the concentration-response curve. Turning to `CC[C@H](C)[C@H](NC(=O)[C@H](Cc1ccccc1)NC(=O)[C@H](CCC(=O)O)NC(=O)[C@H](CCCCNC(=O)[C@@H](N)CCCCNC(=O)COCCOCCNC(=O)CC[C@H](NC(=O)CC[C@H](NC(=O)CCCCCCCCCCCCCCC(=O)O)C(=O)O)C(=O)O)NC(=O)[C@H](C)NC(=O)[C@H](C)NC(=O)[C@H](CCC(N)=O)NC(=O)CNC(=O)[C@H](CCC(=O)O)NC(=O)[C@H](CC(C)C)NC(=O)[C@H](Cc1ccc(O)cc1)NC(=O)[C@H](CO)NC(=O)[C@H](CO)NC(=O)[C@@H](NC(=O)[C@H](CC(=O)O)NC(=O)[C@H](CO)NC(=O)[C@@H](NC(=O)[C@H](Cc1ccccc1)NC(=O)[C@@H](NC(=O)CNC(=O)[C@H](CCC(=O)O)NC(=O)C(C)(C)NC(=O)[C@@H](N)Cc1c[nH]cn1)[C@@H](C)O)[C@@H](C)O)C(C)C)C(=O)N[C@@H](C)C(=O)N[C@@H](Cc1c[nH]c2ccccc12)C(=O)N[C@@H](CC(C)C)C(=O)N[C@H](C(=O)N[C@@H](CCCNC(=N)N)C(=O)NCC(=O)N[C@@H](CCCNC(=N)N)C(=O)N[C@@H](CCCCNC(=O)[C@@H](N)CCCCNC(=O)COCCOCCNC(=O)CC[C@H](NC(=O)CC[C@H](NC(=O)CCCCCCCCCCCCCCC(=O)O)C(=O)O)C(=O)O)C(=O)O)C(C)C` [Example 11, N^ε26-[(2S)-2-amino-6-[[2-[2-[2-[[(4S)-4-carboxy-4-[[(4S)-4-carboxy-4-(15-carboxypentadecanoylamino)butanoyl]amino]butanoyl]amino]ethoxy]ethoxy]acetyl]amino]hexanoyl], N^ε37-[(2S)-2-amino-6-[[2-[2-[2-[[(4S)-4-carboxy-4-[[(4S)-4-carboxy-4-(15-carboxypentadecanoylamino)butanoyl]amino]butanoyl]amino]ethoxy]ethoxy]acetyl]amino]hexanoyl]-[Aib^8,Arg^34, Lys^37]-GLP-1-(7-37)-peptide], the concentration for half-maximal inhibition (IC50) in data set [1] (0.001% HSA (low albumin), read-out: Receptor binding affinity IC50 (low HSA)) is 0.74 nM. The compound also gave an IC50 (high HSA) in data set [1] (Receptor binding affinity IC50 (high HSA), 2.0% HSA (high albumin), heading: Receptor binding affinity IC50) of 522 nM. The half-life in data set [2] is 28 h; in data set [4], 95 h. The EC50 in data set [3] (0% HSA, read-out: In vitro potency (CRE luciferase) EC50 (0% HSA)) is 0.0073 nM; in data set [3] (In vitro potency (CRE luciferase) EC50 (1% HSA), 1% HSA), 1.57 nM.
